Assay results as given in article PMC6353801, “Enhanced Anti-diabetic Effect of Berberine Combined With Timosaponin B2 in Goto-Kakizaki Rats, Associated With Increased Variety and Exposure of Effective Substances Through Intestinal Absorption” (Frontiers in Pharmacology, 2019).
Several values for one entry are separate records, joined by “and”; a condition that tells them apart may be missing. Equal values may be shown once.

Tests used:
GK rats = assay: NFBG and FBG levels in GK rats, 6-week oral treatment; assay type: in vivo, rat; details: during 6-week treatment, TB-2 33.3, BBR 66.7, TB-2+BBR 100, metformin 200 mg/kg/day
Method: Four-week-old male GK rats were fed a high-fat diet, and age-matched non-diabetic Wistar rats were fed standard chow as the control group. Under these dietary conditions, blood glucose was estimated each week for 7 weeks in 12-h fasted rats using a portable glucometer (One Touch Sure Step Meter, Johnson & Johnson, United States) by drawing the blood from the tail vein. GK rats with fasting blood glucose levels (FBG) above 16.7 mM were considered as diabetic rats, and only uniformly diabetic rats were used in this study. […] All the drugs were suspended in 0.5% carboxymethylcellulose sodium (CMC-Na) solution for oral gavage (10 ml/kg) once per day (at 9:00) for 6 weeks. Simultaneously, the Wistar and vehicle groups received vehicle over the treatment period. Food consumption and body weight were measured every week throughout the experimental periods. Non-fasting blood glucose (NFBG) levels were determined by collecting blood samples from the tail vein (at 9:00), and FBG levels were determined after a 6-h fast (at 15:00) on days 0, 7, 14, 21, and 42. On day 28, an oral glucose tolerance test (OGTT) was performed after an overnight fast. […] On day 42, the rats were anesthetized with urethane (1.4 g/kg, dissolved in saline) after an overnight fast and were sacrificed to collect the liver, kidney, heart, and spleen. The organs were weighed after washing with saline and drying to calculate the organ coefficient, namely, the ratio between the weight of organs and the body in each rat.

[1] = PK in systemic plasma of GK rats after repeated oral administration (day 35); assay type: in vivo, rat; details: GK rats, systemic plasma; for increase in AUC on combination vs single treatment / increase in Cmax on combination vs single treatment: day 35; for Cmax / half-life / Tmax / AUC: male, GK, rat, po, mean ± SE, n = 8; for Cmax / half-life / Tmax: plasma; for half-life: read-out: T1/2 (converted); for Tmax: read-out: Tmax; for AUC: read-out: AUC
Method: Analyses were performed on a Shimadzu LCMS-8030 triple quadrupole system (Shimadzu Corp., Japan) equipped with an electrospray ionization source. Data processing was performed using Shimadzu LC–MS LabSolutions (version 5.42 SP4, Shimadzu, Japan). Chromatographic separation was carried out on a Waters CORTECS C18+ column (100 mm × 2.1 mm, 2.7 μm, Ireland) with a security guard C18+ column (5 mm × 2.1 mm, 2.7 μm, Ireland). […] The gradient elution was 85% B from 0 to 2.5 min, 85% B–83% B from 2.5 to 3.0 min, 83% B from 3.0 to 6.0 min, 83% B–40% B from 6.0 to 6.5 min, 40% B from 6.5 to 7.0 min, 40% B–85% B from 7.0 to 7.2 min, and 85% B from 7.2 to 12 min. […] The optimized precursor-to-product ion pairs (collision energy) were in the positive mode as follows: m/z 579.20–255.15 (28 V) for TB-2 (at 4.1 min) and timosaponin A3 (at 6.1 min) and 271.50–154.70 (25 V) for tolbutamide (IS, at 5.8 min). […] If the concentrations of the compounds were over the linear range, the relevant samples were diluted with blank matrix by a factor of 10. […] Four-week-old male GK rats were fed a high-fat diet, and age-matched non-diabetic Wistar rats were fed standard chow as the control group. Under these dietary conditions, blood glucose was estimated each week for 7 weeks in 12-h fasted rats using a portable glucometer (One Touch Sure Step Meter, Johnson & Johnson, United States) by drawing the blood from the tail vein. GK rats with fasting blood glucose levels (FBG) above 16.7 mM were considered as diabetic rats, and only uniformly diabetic rats were used in this study. […] All the drugs were suspended in 0.5% carboxymethylcellulose sodium (CMC-Na) solution for oral gavage (10 ml/kg) once per day (at 9:00) for 6 weeks. Simultaneously, the Wistar and vehicle groups received vehicle over the treatment period. Food consumption and body weight were measured every week throughout the experimental periods. Non-fasting blood glucose (NFBG) levels were determined by collecting blood samples from the tail vein (at 9:00), and FBG levels were determined after a 6-h fast (at 15:00) on days 0, 7, 14, 21, and 42. On day 28, an oral glucose tolerance test (OGTT) was performed after an overnight fast. […] On day 42, the rats were anesthetized with urethane (1.4 g/kg, dissolved in saline) after an overnight fast and were sacrificed to collect the liver, kidney, heart, and spleen. The organs were weighed after washing with saline and drying to calculate the organ coefficient, namely, the ratio between the weight of organs and the body in each rat. The liver samples were diluted with 3 volumes (0.5 g/1.5 ml) of saline and homogenized. The liver homogenates and plasma samples (100 μl) were precipitated with three volumes of acetonitrile (containing 10 μg/ml tolbutamide). […] Then, 100 μl of the original mobile phase was added, and the samples were vortexed for 5 min and centrifuged at 13,000 rpm at 4°C for 10 min. Finally, the supernatant was used for HPLC–QQQ–MS/MS analysis. A non-compartmental analysis was performed using WinNonlin software (Pharsight 6.2, Raleigh, NC, United States) to calculate the PK parameters. The significance of PK parameters in normal rats, generated by the sparse method in WinNonlin, was assessed with Welch’s unequal variances t-test. The significance of the other results was assessed using two-tailed Student’s t-tests. Statistical significance was defined as P < 0.05.

[2] = Liver distribution in Wistar rats; details: for increase in AUC on co-administration vs single treatment / increase in Cmax on co-administration vs single treatment / AUC ± SE / Cmax / Tmax / exposure (AUC) of metabolite as share of the exposure of BBR: Wistar rats; for increase in AUC on co-administration vs single treatment / increase in Cmax on co-administration vs single treatment / AUC ± SE / Cmax / half-life / Tmax / exposure (AUC) of metabolite as share of the exposure of BBR: liver; for AUC ± SE / Cmax / half-life / Tmax: n = 5; for Cmax / half-life / Tmax: male, Wistar, rat, po; for Cmax: Cmax ± SE; for half-life: T1/2, Wistar rats
[3] = PK in portal vein plasma of Wistar rats (before hepatic clearance); details: for AUC / Cmax / Tmax / half-life: male, Wistar, rat, po
[4] = PK in systemic plasma of Wistar rats (after hepatic clearance) and liver extraction ratio; details: for ERliver (liver extraction ratio): (AUCpor−AUCsys)/AUCpor; for increase in AUC on co-administration vs single treatment / Tmax / AUC / Cmax / half-life / AUC ratio between M1 and BBR: systemic plasma; for Tmax: n = 5
[5] = 33.3 mg/kg, day 35, oral BBR+TB-2 (66.7+33.3 mg/kg)
[6] = 66.7 mg/kg, day 35, oral BBR 66.7 mg/kg alone
[7] = single oral BBR 66.7 mg/kg alone
[8] = single oral BBR+TB-2 (66.7+33.3 mg/kg)
[9] = 33.3 mg/kg, single oral BBR+TB-2 (66.7+33.3 mg/kg)
[10] = 66.7 mg/kg, single oral BBR 66.7 mg/kg alone
[11] = Wistar rats, oral BBR 66.7 mg/kg alone
[12] = Wistar rats, oral BBR+TB-2 (100 mg/kg)
[13] = Wistar rats, TB-2+BBR treatments
[14] = male, Wistar, rat, plasma, po, 66.7 mg/kg, Tmax, Wistar rats, single oral BBR 66.7 mg/kg alone
[15] = male, Wistar, rat, po, 66.7 mg/kg
[16] = male, Wistar, rat, po, 100 mg/kg
[17] = male, Wistar, rat, po, 100 mg/kg, Tmax, Wistar rats, single oral BBR+TB-2 (100 mg/kg)

## COc1ccc2cc3[n+](cc2c1OC)CCc1cc2c(cc1-3)OCO2 [BBR, berberine]
GK rats
  FBG levels compared with the vehicle group (in words): no significant differences
  NFBG levels compared with the vehicle group (in words): no significant differences
[1]
  increase in AUC on combination vs single treatment: 107%
  increase in Cmax on combination vs single treatment: 695%
[1]; [5]
  Cmax: 42.2 ± 17.4 ng/mL
  half-life: 9.3 ± 2.5 h
  Tmax: 0.9 ± 0.1 h
  AUC: 155 ± 59.7 ng·h/mL
[1]; [6]
  Cmax: 5.3 ± 0.4 ng/mL
  half-life: 28.1 ± 11.7 h
  Tmax: 4.6 ± 1.5 h
  AUC: 74.8 ± 3.5 ng·h/mL
[2]
  increase in AUC on co-administration vs single treatment: didn’t elicit statistical significance
  increase in Cmax on co-administration vs single treatment: 136%
[2]; [7]
  AUC ± SE: 3255.1 ± 247.5 h ∗ ng/g
[2]; [8]
  AUC ± SE: 4600.3 ± 645.1 h ∗ ng/g
[2]; [9]
  Cmax: 1880 ± 418 ng/g
  half-life: 6.9 h
  Tmax: 2 h
[2]; [10]
  Cmax: 795 ± 157 ng/g
  half-life: 14.8 h
  Tmax: 2 h
[2]; normal rats, in the plasma and liver
  improvement of levels on co-administration: 41–114%
[3]; Wistar rats
  increase in AUC on co-administration vs single treatment: 114%
[3]; 66.7 mg/kg
  AUC: 198 ± 22.2 ng·h/mL
  Cmax: 63.1 ± 18.5 ng/mL
  Tmax: 2 h
  half-life: 9.8 h
[3]; 100 mg/kg
  AUC: 424 ± 60.5 ng·h/mL
  Cmax: 145 ± 50.3 ng/mL
  Tmax: 2 h
  half-life: 10.5 h
[4]; [11]
  ERliver (liver extraction ratio): 87.3%
[4]; [12]
  ERliver (liver extraction ratio): 90.0%
[4]; Wistar rats, BBR treatments
  AUC in portal vein plasma, fold higher than in systemic plasma: 6.9 fold
[4]; [13]
  AUC in portal vein plasma, fold higher than in systemic plasma: 9.1 fold
[4]; Wistar rats, single or combination treatments
  AUC in portal vein plasma, fold higher than in systemic plasma (discussion): approximately 10 fold
[4]; Wistar rats
  increase in AUC on co-administration vs single treatment: didn’t increase
[4]; Wistar rats, single oral BBR 66.7 mg/kg alone
  Tmax: 0.2 h
[4]; [14]
  Tmax: 0.167 h
[4]; [15]
  AUC: 25.1 ± 4.1 ng·h/mL
  Cmax: 11.1 ± 3.4 ng/mL
  half-life: 1.9 h
[4]; [16]
  AUC: 42.1 ± 11.7 ng·h/mL
  Cmax: 10.8 ± 3.9 ng/mL
  half-life: 2.3 h
[4]; [17]
  Tmax: 2 h

## COc1ccc2cc3[n+](cc2c1O)CCc1cc2c(cc1-3)OCO2 [M1, Berberrubine]
[1]; BBR treatments
  levels of M1 as share of the parent drug: 75%
[1]; TB-2+BBR treatments
  levels of M1 as share of the parent drug: 61%
[1]
  increase in AUC on combination vs single treatment: didn’t significantly increase
  increase in Cmax on combination vs single treatment: didn’t significantly increase
[1]; [5]
  Cmax: 6.6 ± 2 ng/mL
  half-life: 23.9 ± 7.4 h
  Tmax: 9.4 ± 1.2 h
  AUC: 94.9 ± 26.4 ng·h/mL
[1]; [6]
  Cmax: 4.3 ± 1.7 ng/mL
  half-life: 100 ± 92.2 h
  Tmax: 10.4 ± 3.1 h
  AUC: 56.3 ± 18.5 ng·h/mL
[2]
  increase in AUC on co-administration vs single treatment: 282%
  increase in Cmax on co-administration vs single treatment: 109%
[2]; TB-2+BBR treatments
  exposure (AUC) of metabolite as share of the exposure of BBR: 77% and 77.5%
[2]; [7]
  AUC ± SE: 932.5 ± 155.4 h ∗ ng/g
[2]; [8]
  AUC ± SE: 3565.3 ± 256.7^∗∗∗ h ∗ ng/g
[2]; single treatment (On TB-2 treatments)
  exposure (AUC) of metabolite as share of the exposure of BBR: 29% and 28.6%
[2]; [9]
  Cmax: 238 ± 39.5 ng/g
  half-life: 4.2 h
  Tmax: 6 h
[2]; [10]
  Cmax: 114 ± 10.6 ng/g
  half-life: 4.6 h
  Tmax: 4 h
[3]; Wistar rats
  increase in AUC on co-administration vs single treatment: 89%
  increase in Cmax on co-administration vs single treatment: 105%
[3]; Wistar rats, BBR treatments
  AUC ratio between M1 and BBR: 28.1%
[3]; [13]
  AUC ratio between M1 and BBR: 24.9%
[3]; 66.7 mg/kg
  AUC: 55.7 ± 3.5 ng·h/mL
  Cmax: 3.5 ± 1 ng/mL
  Tmax: 6 h
  half-life: 9.7 h
[3]; 100 mg/kg
  AUC: 106 ± 6.2 ng·h/mL
  Cmax: 7.2 ± 1.5 ng/mL
  Tmax: 9 h
  half-life: 7 h
[4]; [11]
  ERliver (liver extraction ratio): 81.9%
[4]; [12]
  ERliver (liver extraction ratio): 81.3%
[4]; Wistar rats, BBR treatments
  AUC in portal vein plasma, fold higher than in systemic plasma: approximately fivefold
  AUC ratio between M1 and BBR: 40.2%
[4]; [13]
  AUC in portal vein plasma, fold higher than in systemic plasma: approximately fivefold
  AUC ratio between M1 and BBR: 46.8%
[4]; Wistar rats
  increase in AUC on co-administration vs single treatment: 95%
[4]; [14]
  Tmax: 6 h
[4]; [15]
  AUC: 10.1 ± 0.6 ng·h/mL
  Cmax: 1 ± 0.2 ng/mL
  half-life: 5.8 h
[4]; [16]
  AUC: 19.7 ± 2.9 ng·h/mL
  Cmax: 2 ± 0.2 ng/mL
  half-life: 1.9 h
[4]; [17]
  Tmax: 9 h
